Experimental findings from US20090062255A1, “TUMOR-TARGETING EVALUATION METHODOLOGY AND COMPOUNDS RELATED THERETO” (THALLION PHARMACEUTICALS INC., priority 2007, published 2009) are described below.

One test addresses T1, human MAPK2 (ERK2) (Homo sapiens, UniProt P28482).
T1 construct: purchased Upstate (Kinase Profiler Service; Dundee, UK)
Briefly: Upstate Kinase Profiler, MAPK2 (ERK2). The test is classed as biochemical. The procedure: Unlike current Ras signalling pathway inhibitors, ECO-4601 is not a direct kinase inhibitor. This was documented by evaluating the effect of ECO-4601 on human EGFR, c-RAF, MEK1, MAPK1 (ERK1) and MAPK2 (ERK2) kinase-activity (Upstate Kinase Profiler™ Service; Dundee, UK). ECO-4601 was tested at 0.5 μM and 5 μM in a final volume of 25 μL according to standard protocols developed by Upstate Ltd. Briefly, purified recombinant human enzymes were incubated with 25 mM Tris pH 7.5 containing EGTA, a specific substrate and γ-^32P-ATP. The reaction was initiated with MgATP mix and incubated for 40 minutes at RT. The reaction was stopped by the addition of 5 μL of a 3% phosphoric acid solution; aliquots were spotted on filters and counted. Detailed procedures are available on the Millipore Upstate website.

For test [1], the system named is Phospho-ERK (Ras-MAPK signaling pathway). In words: ERK phosphorylation ELISA assay (FACE) in MCF-7 cells. The test is classed as cell-based, human. The following applies: 6 hours, EGF 100 ng/mL for 5 min. On the procedure:
Human breast tumor MCF-7 cells were plated in 96-well culture plates (10,000 cells per well) in RPMI containing 10% FBS. After an overnight incubation, the medium is changed to low serum conditions (RPMI containing 0.1% FBS) for 18 h. Cells were then treated with ECO-4601 or selected analogs for 6 hours and then stimulated by the addition of EGF (100 ng/mL for 5 min) to induce the MAPK pathway. UO126 is a commercial inhibitor (Promega, Madison, Wis.) of mitogen-activated protein kinase kinase (MEK1/ERK). Following stimulation, cells were rapidly fixed, which preserved activation-specific protein modifications. Each well was then incubated with an antibody specific for Phospho-ERK or total ERK. After an one-hour incubation and several washes, cells were incubated with a secondary HRP-conjugated antibody followed by a developing solution that provided a colorimetric readout that is quantitative and reproducible. The Fast Activated Cell-based ELISA (FACE™) is commercially available (Active Motif, Carlsbad, Calif.).
Background: An ELISA detects its analyte on a solid surface through an enzyme-linked reagent.

In test [2] the test system is C6 glioblastoma cell line. Briefly: MTT cytotoxicity, C6 cell line. The test is classed as cell-based. The note with it: 96 h, Rat. On the procedure: The cytotoxic activity of Compound 1 was further evaluated using a panel of brain tumor cell lines. This study was performed in collaboration with INSERM (Grenoble, France). Tumor cells (5,000 to 10,000 cells per well depending on their doubling time) were plated in 96-well flat-bottom plates and incubated for 24 hours before treatment. Tumor cells were then incubated for 96 hours with seven different concentrations of Compound 1: […], 0.01, and 0.001 μM. The in vitro cytotoxic activity was determined by a standard MTT assay.

In test [3] the test system is human breast cell line MCF-7. Briefly: Growth inhibitory MTT assay, MCF-7. The test is classed as cell-based. The note with it: 72 hours, treated over control. On the procedure:
Growth inhibitory activity of ECO-4601 (Compound 1) and other dibenzodiazepinone analogs was evaluated on a panel of 4 human tumor cell lines: the human uterine sarcoma MES-SA and its doxorubicin-resistant P-glycoprotein over-expressing variant, MES-SA/DX5 as well as non-aggressive and highly aggressive human breast cell lines, MCF-7 and MDA-MB-231, respectively. These four cell lines were obtained from the American Type Culture Collection (Manassas, Va.) and cultured in RPMI plus 10% fetal bovine serum (FBS) and maintained at 37° C. with 5% CO2.
Exponentially growing cells (5,000 cells per well time; cell number determined with a hemocytometer) were seeded in 96-well flat-bottom plates and allowed to grow overnight. Cells were then incubated for 72 hours with three different concentrations of ECO-4601 or analogs: 30,10, and 3 μM. The in vitro growth inhibitory activity was determined by a commercial MTT assay. All measurements were done in quadruplicate and each experiment was performed 2-3 times. The lower the value, the more cytotoxic is the compound.
On the technique in general: Formazan colour is commonly taken as a measure of viable cells.

In test [4] the target is GABAA, the Central Benzodiazepine Receptor (CBR). Briefly: CBR radioligand binding assay ([3H]flunitrazepam, rat brain). The note with it: 1 nM [3H]-Flunitrazepam. The text has this: GABAA, the Central Benzodiazepine Receptor (CBenzR or CBR) is involved in anxiolitic activities.
The procedures used were based on known assays: ACAT (from rat; Ref: Largis et al (1989), J. Lipid. Res., vol 30, 681-689), COX-2 (human; Ref: Riendeau et al (1997), Can. J. Physiol. Pharmacol., vol 75, 1088-1095 and Warner et al (1999), Pro. Natl. Acad. Sci. USA, vol 96, 7563-7568), 5-LO (human; Ref: Carter et al (1991), J. Pharmacol. Exp. Ther., vol 256, no 3, 929-937, and Safayhi et al (2000), Planta Medica, vol 66, 110-113), PBR (from rat; Le Fur et al (1983), Life Sci. USA, vol 33, 449-457), CysLT1 (human; Martin et al (2001), Biochem. Pharmacol., vol 62, no 9, 1193-1200) and CBR (from rat; Damm et al (1978), Res. Comm. Chem. Pathol. Pharmacol., vol 22, 597-600 and Speth et al (1979), Life Sci., vol 24, 351-357).
Binding Assays were done at constant concentration of the compound, in 1% DMSO as vehicle, and are specified below each enzyme/receptor type in Table 18. The results are expressed in Table 18 as percentage inhibition. […]
As Compound 1 was isolated from structural prediction through genetic analysis and activity identified through in vitro cytotoxic assays, its molecular target(s) were unknown at the time of discovery. […] The effect of ECO-4601 on CBR (GABAA) and PBR was initially evaluated in a radioligand-binding assay at MDS Pharma Services (Taipei, Tawain). […]

Where only a bound is given, the exact number is not on record here.

T1 sequence (P28482 whole entry): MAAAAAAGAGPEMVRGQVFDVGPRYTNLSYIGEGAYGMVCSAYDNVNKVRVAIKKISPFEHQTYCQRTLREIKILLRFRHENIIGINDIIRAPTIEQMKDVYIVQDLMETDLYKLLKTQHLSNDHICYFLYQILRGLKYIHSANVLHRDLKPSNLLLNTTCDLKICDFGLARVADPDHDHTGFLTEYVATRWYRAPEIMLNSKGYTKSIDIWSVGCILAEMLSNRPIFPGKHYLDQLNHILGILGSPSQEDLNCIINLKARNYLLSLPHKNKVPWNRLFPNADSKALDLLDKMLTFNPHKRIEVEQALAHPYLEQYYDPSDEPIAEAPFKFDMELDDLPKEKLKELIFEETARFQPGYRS

`CC(C)=CCC/C(C)=C/CC/C(C)=C/CN1C(=O)c2cccc(O)c2Nc2c(O)cc(O)cc21` [Compound 1, 10-farnesyl-4,6,8-trihydroxy-5,10-dihydrodibenzo[b,e][1,4]diazepin-11-one]: the “direct inhibition of ERK2 kinase activity (in words)” value on human MAPK2 (ERK2) (0.5 μM and 5 μM) is given as “does not directly inhibit”. In addition, the activity at 0.5 µM at human MAPK2 (ERK2) (MAPK2 (ERK2), 0.5 μM, % of enzyme activity over positive control, read-out: Kinase Activity (%) ± SD) was 116 ± 1%. On human MAPK2 (ERK2) (MAPK2 (ERK2), 5 μM, % of enzyme activity over positive control, read-out: Kinase Activity (%) ± SD), the activity at 5 µM was determined as 110 ± 1%. Also, the “inhibition of phospho-ERK in the FACE ELISA assay” value in test [1] is on record as “inhibit the Ras-MAPK signaling pathway”. For the same compound, the figures for the IC50 in test [2] and in test [4] were 4.3 ± 2.3 µM and more than 10 µM, respectively. In addition, in test [3], the “% T/C at 10 μM” value was 44%.

What is called IC50 is the concentration needed to halve the response being measured. Low values mean greater potency, high ones weaker potency.
